In patent US10428080B2, “TBK/IKK inhibitor compounds and uses thereof” (Merck Patent GmbH, priority 2015, dated 2019):
Structures can show the parent of a compound that is named as a salt.

Assays:
TBK1 = molecular target: T1, TBK1 (Homo sapiens, UniProt Q9UHD2); test: TBK Biochemical Assay; settings: read-out: TBK1 IC50
T1 sequence (Q9UHD2 1-729): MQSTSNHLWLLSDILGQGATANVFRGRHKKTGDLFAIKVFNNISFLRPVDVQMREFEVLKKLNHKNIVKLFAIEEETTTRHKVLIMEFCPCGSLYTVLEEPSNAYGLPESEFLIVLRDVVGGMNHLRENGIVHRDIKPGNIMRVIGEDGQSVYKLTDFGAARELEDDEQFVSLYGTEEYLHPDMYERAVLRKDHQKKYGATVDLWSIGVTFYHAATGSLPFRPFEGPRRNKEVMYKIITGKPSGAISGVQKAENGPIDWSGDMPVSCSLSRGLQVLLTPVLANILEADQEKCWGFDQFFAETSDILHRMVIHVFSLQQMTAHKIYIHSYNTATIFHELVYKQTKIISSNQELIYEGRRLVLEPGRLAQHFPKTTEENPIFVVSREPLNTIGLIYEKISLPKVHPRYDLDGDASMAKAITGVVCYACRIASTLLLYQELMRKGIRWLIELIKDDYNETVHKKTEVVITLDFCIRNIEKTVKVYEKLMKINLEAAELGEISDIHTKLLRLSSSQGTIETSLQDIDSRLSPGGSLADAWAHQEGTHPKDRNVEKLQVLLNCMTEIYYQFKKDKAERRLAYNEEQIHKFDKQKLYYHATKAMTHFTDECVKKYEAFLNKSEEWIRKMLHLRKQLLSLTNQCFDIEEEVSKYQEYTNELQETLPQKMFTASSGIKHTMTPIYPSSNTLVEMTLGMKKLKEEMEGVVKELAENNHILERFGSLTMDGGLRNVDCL
Summary of the method: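 Caliper LabChip mobility-shift readout of substrate and product after 90 min of TBK1 reaction at 25° C and stop-buffer addition. Compounds tested in 1:4 serial dilution over 10 points from 30 uM final at 1% DMSO; staurosporine 10 uM final defines full inhibition.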

IKKε = molecular target: T2, IKKε (Homo sapiens, UniProt Q14164); test: IKKe Biochemical Assay; settings: read-out: IKKε IC50
T2 sequence (Q14164 1-716): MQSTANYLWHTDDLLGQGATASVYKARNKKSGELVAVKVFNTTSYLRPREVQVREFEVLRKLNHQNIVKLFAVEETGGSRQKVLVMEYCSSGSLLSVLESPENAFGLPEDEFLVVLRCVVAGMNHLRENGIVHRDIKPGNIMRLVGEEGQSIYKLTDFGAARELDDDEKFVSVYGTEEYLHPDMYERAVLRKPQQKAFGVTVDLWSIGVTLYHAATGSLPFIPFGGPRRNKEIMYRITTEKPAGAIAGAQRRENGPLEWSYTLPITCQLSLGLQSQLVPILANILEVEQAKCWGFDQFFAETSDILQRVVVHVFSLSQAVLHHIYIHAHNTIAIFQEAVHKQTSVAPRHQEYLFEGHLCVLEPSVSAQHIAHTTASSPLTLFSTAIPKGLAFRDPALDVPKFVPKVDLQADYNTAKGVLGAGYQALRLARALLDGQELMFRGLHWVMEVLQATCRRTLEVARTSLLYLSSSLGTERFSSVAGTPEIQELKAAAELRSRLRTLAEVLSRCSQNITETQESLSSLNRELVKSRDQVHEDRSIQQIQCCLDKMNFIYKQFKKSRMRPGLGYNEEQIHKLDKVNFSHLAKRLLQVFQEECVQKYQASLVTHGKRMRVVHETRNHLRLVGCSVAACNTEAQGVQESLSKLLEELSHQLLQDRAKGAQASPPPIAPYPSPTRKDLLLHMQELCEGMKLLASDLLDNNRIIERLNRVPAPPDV
Summary of the method: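 Activity was measured as mobility-shift separation of phosphorylated from unphosphorylated substrate on a LabChip EZ Reader. Compound was titrated from 30 uM final in 10 points, 1:4 steps, with 1% DMSO, and enzyme plus substrate reacted 90 min at 25° C before stop buffer. Control wells held 10 uM staurosporine.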

Row | IC50 (TBK1) [nM] | IC50 (IKKε) [nM] | SMILES
1 | < 100 | < 100 | COc1cc(C(=O)N(C)C)ccc1-c1cc2nccc(-c3cc(F)c(N(C)C4CCOCC4)c(C#N)c3)c2o1 [Compound 237, 4-(7-(3-cyano-5-fluoro-4-(methyl(tetrahydro-2H-pyran-4-yl)amino)phenyl)furo[3,2-b]pyridin-2-yl)-3-methoxy-N,N-dimethylbenzamide]
2 | < 100 | < 100 | CN(C)C(=O)c1ccc(-c2cc3nccc(-c4ccc(OC5CCOCC5)c(C#N)c4)c3o2)c(F)c1 [Compound 238, 4-(7-(3-cyano-4-(tetrahydro-2H-pyran-4-yloxy)phenyl)furo[3,2-b]pyridin-2-yl)-3-fluoro-N,N-dimethylbenzamide]
3 | < 100 | < 100 | CN(C)C(=O)c1ccc(-c2cc3nccc(-c4ccc(OC5CCOCC5)c(C#N)c4)c3o2)c(Cl)c1 [Compound 239, 3-chloro-4-(7-(3-cyano-4-(tetrahydro-2H-pyran-4-yloxy)phenyl)furo[3,2-b]pyridin-2-yl)-N,N-dimethylbenzamide]
4 | 100 to 1000 | 100 to 1000 | CN(C)C(=O)c1ccc(-c2cc3nccc(-c4ccc(OC5CCOCC5)c(C#N)c4)c3o2)c(C(F)(F)F)c1 [Compound 240, 4-(7-(3-cyano-4-(tetrahydro-2H-pyran-4-yloxy)phenyl)furo[3,2-b]pyridin-2-yl)-N,N-dimethyl-3-(trifluoromethyl)benzamide]
5 | < 100 | < 100 | CN(C)C(=O)c1ccc(-c2cc3nccc(-c4ccc(OC5CCOCC5)c(C#N)c4)c3o2)c(OC(F)(F)F)c1 [Compound 241, 4-(7-(3-cyano-4-(tetrahydro-2H-pyran-4-yloxy)phenyl)furo[3,2-b]pyridin-2-yl)-N,N-dimethyl-3-(trifluoromethoxy)benzamide]
6 | 100 to 1000 | 100 to 1000 | CN(C)C(=O)c1ccc(-c2cc3nccc(-c4ccc(OC5CCOCC5)c(C#N)c4)c3o2)nn1 [Compound 242, 6-(7-(3-cyano-4-(tetrahydro-2H-pyran-4-yloxy)phenyl)furo[3,2-b]pyridin-2-yl)-N,N-dimethylpyridazine-3-carboxamide hydrochloride]
7 | < 100 | < 100 | CN(C)C(=O)c1ccc(-c2cc3nccc(-c4ccc(OC5CCOCC5)c(C#N)c4)c3o2)nc1 [Compound 243, 6-(7-(3-cyano-4-(tetrahydro-2H-pyran-4-yloxy)phenyl)furo[3,2-b]pyridin-2-yl)-N,N-dimethylnicotinamide]
8 | 100 to 1000 | 100 to 1000 | CN(C)C(=O)c1ccc(-c2cc3nccc(-c4ccc(NC5CCOCC5)c(C#N)c4)c3o2)nc1 [Compound 244, 6-(7-(3-cyano-4-(tetrahydro-2H-pyran-4-ylamino)phenyl)furo[3,2-b]pyridin-2-yl)-N,N-dimethylnicotinamide]
9 | 100 to 1000 | 100 to 1000 | CN(C)C(=O)c1ccc(-c2cc3nccc(-c4cc(F)c(OC5CCOCC5)c(C#N)c4)c3o2)nc1 [Compound 245, 6-(7-(3-cyano-5-fluoro-4-(tetrahydro-2H-pyran-4-yloxy)phenyl)furo[3,2-b]pyridin-2-yl)-N,N-dimethylnicotinamide hydrochloride]
10 | 100 to 1000 | 100 to 1000 | CN(C)C(=O)c1ccc(-c2cc3nccc(-c4cc(F)c(NC5CCOCC5)c(C#N)c4)c3o2)nc1 [Compound 246]
11 | 100 to 1000 | 100 to 1000 | CN(C)C(=O)c1cnc(-c2cc3nccc(-c4cc(F)c(OC5CCOCC5)c(C#N)c4)c3o2)c(F)c1 [Compound 247, 6-(7-(3-cyano-5-fluoro-4-(tetrahydro-2H-pyran-4-yloxy)phenyl)furo[3,2-b]pyridin-2-yl)-5-fluoro-N,N-dimethylnicotinamide]
12 | 100 to 1000 | 100 to 1000 | CN(C)C(=O)c1cnc(-c2cc3nccc(-c4ccc(NC5CCOCC5)c(C#N)c4)c3o2)c(F)c1 [Compound 249, 6-(7-(3-cyano-4-(tetrahydro-2H-pyran-4-ylamino)phenyl)furo[3,2-b]pyridin-2-yl)-5-fluoro-N,N-dimethylnicotinamide]
13 | 100 to 1000 | 100 to 1000 | CN(C)C(=O)c1ccc(-c2cc3nccc(-c4ccc(NC5CCOCC5)c(C#N)c4)c3o2)c(F)c1 [Compound 250, 4-(7-(3-cyano-4-(tetrahydro-2H-pyran-4-ylamino)phenyl)furo[3,2-b]pyridin-2-yl)-3-fluoro-N,N-dimethylbenzamide]
14 | < 100 | < 100 | COc1cc(C(=O)N(C)C)cc(F)c1-c1cc2nccc(-c3ccc(NC4CCOCC4)c(C#N)c3)c2o1 [Compound 255, 4-(7-(3-cyano-4-(tetrahydro-2H-pyran-4-ylamino)phenyl)furo[3,2-b]pyridin-2-yl)-3-fluoro-5-methoxy-N,N-dimethylbenzamide]
15 | < 100 | < 100 | CCN(CC)C(=O)c1ccc(-c2cc3nccc(-c4ccc(OC5CCOCC5)c(C#N)c4)c3o2)c(OC)c1 [Compound 256, 4-(7-(3-cyano-4-(tetrahydro-2H-pyran-4-yloxy)phenyl)furo[3,2-b]pyridin-2-yl)-N,N-diethyl-3-methoxybenzamide hydrochloride]
16 | < 100 | < 100 | CCCN(C)C(=O)c1ccc(-c2cc3nccc(-c4ccc(OC5CCOCC5)c(C#N)c4)c3o2)c(OC)c1 [Compound 257, 4-(7-(3-cyano-4-(tetrahydro-2H-pyran-4-yloxy)phenyl)furo[3,2-b]pyridin-2-yl)-3-methoxy-N-methyl-N-propylbenzamide hydrochloride]
17 | < 100 | < 100 | COc1cc(C(=O)N(C)CCCO)ccc1-c1cc2nccc(-c3ccc(OC4CCOCC4)c(C#N)c3)c2o1 [Compound 258, 4-(7-(3-cyano-4-(tetrahydro-2H-pyran-4-yloxy)phenyl)furo[3,2-b]pyridin-2-yl)-N-(3-hydroxypropyl)-3-methoxy-N-methylbenzamide hydrochloride]
18 | < 100 | < 100 | CCN(CC)C(=O)c1ccc(-c2cc3nccc(-c4ccc(NC5CCOCC5)c(C#N)c4)c3o2)c(OC)c1 [Compound 259, 4-(7-(3-cyano-4-(tetrahydro-2H-pyran-4-ylamino)phenyl)furo[3,2-b]pyridin-2-yl)-N,N-diethyl-3-methoxybenzamide]
19 | < 100 | < 100 | COc1cc(C(=O)N(C)CC(F)F)ccc1-c1cc2nccc(-c3ccc(OC4CCOCC4)c(C#N)c3)c2o1 [Compound 260]
20 | < 100 | < 100 | COc1cc(C(=O)N(C)CCCO)ccc1-c1cc2nccc(-c3ccc(NC4CCOCC4)c(C#N)c3)c2o1 [Compound 261, 4-(7-(3-cyano-4-(tetrahydro-2H-pyran-4-ylamino)phenyl)furo[3,2-b]pyridin-2-yl)-N-(3-hydroxypropyl)-3-methoxy-N-methylbenzamide]
21 | < 100 | < 100 | CCN(C)C(=O)c1ccc(-c2cc3nccc(-c4ccc(NC5CCOCC5)c(C#N)c4)c3o2)c(OC)c1 [Compound 262, 4-(7-(3-cyano-4-(tetrahydro-2H-pyran-4-ylamino)phenyl)furo[3,2-b]pyridin-2-yl)-N-ethyl-3-methoxy-N-methylbenzamide]
22 | < 100 | < 100 | CCc1cc(C(=O)N(C)C)ccc1-c1cc2nccc(-c3ccc(OC4CCOCC4)c(C#N)c3)c2o1 [Compound 263, 4-(7-(3-cyano-4-(tetrahydro-2H-pyran-4-yloxy)phenyl)furo[3,2-b]pyridin-2-yl)-3-ethyl-N,N-dimethylbenzamide]
23 | < 100 | < 100 | CN(C)C(=O)c1ccc(-c2cc3nccc(-c4ccc(OC5CCOCC5)c(C#N)c4)c3o2)c(O)c1 [Compound 264, 4-(7-(3-cyano-4-(tetrahydro-2H-pyran-4-yloxy)phenyl)furo[3,2-b]pyridin-2-yl)-3-hydroxy-N,N-dimethylbenzamide]
